The record followed here is patent publication US7358276B2, “2-Oxo-1-pyrrolidine derivatives, processes for preparing them and their uses” (UCB, S.A., priority 2000, dated 2008).

Data set [1] concerns the target T1, Levetiracetam Binding Site (LBS), rat cerebral cortex membranes (Rattus norvegicus, UniProt Q02563).
T1 construct: The crude membrane pellet obtained is resuspended in 50 mmol/l Tris-HCl (pH 7.4); from tissue; host or cells: rat cerebral cortex crude membranes (male Sprague-Dawley)
The experiment in a line: LBS binding assay (competitive binding, [3H]-2-[4-(3-azidophenyl)-2-oxo-1-pyrrolidinyl]butanamide). As to conditions: 4° C., 120 min.

Data set [2] relates to audiogenic seizures in sound-susceptible mice. The experiment in a line: Animal model of sound-susceptible mice (audiogenic seizures). The data set is classed as in vivo. As to conditions: intraperitoneally 60 minutes before induction of audiogenic seizures; doses given in mol/kg. The source says: The activity of the compounds of formula I, or their pharmaceutically acceptable salts, as anticonvulsants can be determined in the audiogenic seizures model. The objective of this test is to evaluate the anticonvulsant potential of a compound by means of audiogenic seizures induced in sound-susceptible mice, a genetic animal model with reflex seizures. In this model of primary generalised epilepsy, seizures are evoked without electrical or chemical stimulation and the seizure types are, at least in part, similar in their clinical phenomenology to seizures occurring in man (Löscher W. & Schmidt D., Epilepsy Res. (1998), 2, p. 145-181; Buchhalter J. R., Epilepsia (1993), 34, S31-S41). Results obtained with compounds of formula I are indicative of a strong pharmacological effect.
The objective of this test is to evaluate the anticonvulsant potency of a compound in sound-susceptible mice, a genetic animal model with reflex seizures. In this model of primary generalised epilepsy, seizures are evoked without electrical or chemical stimulation and the seizure types are, at least in part, similar in their clinical phenomenology to seizures occuring in man (Löscher W. & Schmidt D., Epilepsy Res. (1998), 2, 145-181; Buchhalter J. R., Epilepsia (1993), 34, S31-S41).
Male or female genetically sound-sensitive mice (14-28 g; N=10), derived from a DBA strain originally selected by Dr. Lehmann of the Laboratory of Acoustic Physiology (Paris) and bred in the UCB Pharma Sector husbandry unit since 1978, are used. The experimental design consisted of several groups, one group receiving the vehicle control and the other groups different doses of the test-compound. The compounds are administered intraperitoneally 60 minutes before the induction of audiogenic seizures.
For testing, the animals are placed in small cages, one mouse per cage, in a sound-attenuated chamber. After a period of orientation of 30 seconds, the acoustic stimulus (90 dB, 10-20 kHz) is delivered for 30 seconds via loudspeakers positioned above each cage. During this interval, the mice are observed and the presence of the 3 phases of the seizure activity namely wild running, clonic and tonic convulsions, is recorded. The proportion of mice protected against wild running, clonic and tonic convulsions, respectively, is calculated.
For active compounds, an ED50 value, i.e. the dose producing 50% protection relative to the control group, together with 95% confidence limits, was calculated using a Probit Analysis (SAS/STAT® Software, version 6.09, PROBIT procedure) of the proportions of protected mice for each of the 3 phases of the seizure activity.

T1 sequence (Q02563 whole entry): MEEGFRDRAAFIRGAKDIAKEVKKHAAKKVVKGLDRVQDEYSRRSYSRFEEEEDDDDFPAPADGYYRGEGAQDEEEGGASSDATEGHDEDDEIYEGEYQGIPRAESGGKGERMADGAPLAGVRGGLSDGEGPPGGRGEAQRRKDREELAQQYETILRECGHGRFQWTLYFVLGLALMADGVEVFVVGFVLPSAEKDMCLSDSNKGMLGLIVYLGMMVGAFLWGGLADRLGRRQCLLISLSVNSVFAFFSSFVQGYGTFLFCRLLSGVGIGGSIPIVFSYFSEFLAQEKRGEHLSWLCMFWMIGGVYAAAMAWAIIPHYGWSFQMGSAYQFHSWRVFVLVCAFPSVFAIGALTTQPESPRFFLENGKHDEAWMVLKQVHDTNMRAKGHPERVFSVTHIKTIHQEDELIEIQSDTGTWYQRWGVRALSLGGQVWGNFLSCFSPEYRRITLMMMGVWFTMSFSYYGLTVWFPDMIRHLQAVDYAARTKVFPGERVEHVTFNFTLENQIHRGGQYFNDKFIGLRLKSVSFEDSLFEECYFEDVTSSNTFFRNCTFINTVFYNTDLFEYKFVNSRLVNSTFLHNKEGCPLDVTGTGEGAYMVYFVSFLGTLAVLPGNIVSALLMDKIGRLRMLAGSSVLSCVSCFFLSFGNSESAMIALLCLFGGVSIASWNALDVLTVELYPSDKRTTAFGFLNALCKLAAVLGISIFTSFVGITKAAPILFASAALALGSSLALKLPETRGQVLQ

As usually defined, the melting point is the temperature, or range, at which the solid turns liquid. In turn, `CC[C@@H](C(N)=O)N1CC(CC2CC2)CC1=O` (stereo partly shown) [Compound 221] registered a melting point of 93.9 °C. In addition, in data set [1], the “pKi (affinity for the levetiracetam binding site)” value (“pKi” below) was “Particular affinity”. In addition, in data set [2], the “ED50 (dose producing 50% protection against audiogenic seizures)” value is given as “Particularly promising activity”.
The like results for `C=C[C@@H]1CC(=O)N([C@@H](CC)C(N)=O)C1` [Compound 92] were, in that order, 79 °C, “Particular affinity” and “Particularly promising activity”.
The like results for `CCC(C(N)=O)N1CC(c2ccc(Cl)c(Cl)c2)CC1=O` (stereo not shown) [Compound 187] were, in that order, 177.9 °C, “Particular affinity” and “Particularly promising activity”.
On to `CC[C@@H](C(N)=O)N1CC(CCc2ccccc2)CC1=O` (stereo partly shown) [Compound 176], for which the melting point stood at 100.2 °C. In addition, the “pKi” value in data set [1] was “Particular affinity”.
The like results for `CCC(C(N)=O)N1CC(CI)CC1=O` (stereo not shown) [Compound 103] were, in that order, 171.7 °C and “Particular affinity”.
Molecule `CCC(C(N)=O)N1CC(c2nccs2)CC1=O` (stereo not shown) [Compound 64] displayed a melting point of 94.3 °C. In data set [1], the “pKi” value was “Particular affinity”. The “ED50 (dose producing 50% protection against audiogenic seizures)” value in data set [2] was “Particularly promising activity”.
The molecule `CCC(C(N)=O)N1CC(c2ccccc2Br)CC1=O` (stereo not shown) [Compound 95] gave a melting point of 165.4 °C. Also, the “pKi” value in data set [1] is “Particular affinity”. The “ED50 (dose producing 50% protection against audiogenic seizures)” value in data set [2] is reported as “Particularly promising activity”.
The like results for `CC[C@@H](C(N)=O)N1CC(Cn2cnnn2)CC1=O` (stereo partly drawn) [Compound 40, (2S)-2-[2-oxo-4-(1H-tetrazol-1-ylmethyl)-1-pyrrolidinyl]butanamide] were, in that order, 82.3 °C, “Particular affinity” and “Particularly promising activity”.
In turn, `CC[C@@H](C(N)=O)N1CC(c2ccccc2OC)CC1=O` (stereo partly shown) [Compound 73] showed a melting point of 112 °C. The “pKi” value in data set [1] is reported as “Particular affinity”.
In turn, `CC[C@@H](C(N)=O)N1CC(c2ccccc2)CC1=O` (stereo partly shown) [Compound 22] gave a melting point of 89 °C. In data set [1], the “pKi” value was “Particular affinity”. In data set [2], the “ED50 (dose producing 50% protection against audiogenic seizures)” value is given as “Particularly promising activity”.
For `CC[C@@H](C(N)=O)N1CC(c2cccc(OC)c2)CC1=O` (stereo partly shown) [Compound 75], the melting point is 91.3 °C. The “pKi” value in data set [1] was “Particular affinity”.
Take `CC[C@@H](C(N)=O)N1CC(c2cccc(Br)c2)CC1=O` (stereo partly shown) [Compound 180]: the melting point was 99.6 °C. For the same molecule, in data set [1], the “pKi” value is recorded as “Particular affinity”. In data set [2], the “ED50 (dose producing 50% protection against audiogenic seizures)” value was “Particularly promising activity”.
For the molecule `CC[C@@H](C(N)=O)N1CC(CCC(F)(F)F)CC1=O` (stereo partly shown) [Compound 215], the melting point amounted to 115.9 °C. In data set [1], the “pKi” value was “Particular affinity”. Also, in data set [2], the “ED50 (dose producing 50% protection against audiogenic seizures)” value is given as “Particularly promising activity”.
On to `CCC(C(N)=O)N1C[C@H](CC(C)(F)F)CC1=O` (stereo partly drawn) [Compound 265, 2-[(4S)-4-(2,2-difluoropropyl)-2-oxopyrrolidinyl]butanamide], for which the melting point came out at 110.9 °C. The “pKi” value in data set [1] is listed as “Particular affinity”.
Regarding `CC[C@@H](C(N)=O)N1CC(c2cccc(N=[N+]=[N-])c2)CC1=O` (single isomer, unassigned) [Compound 86], the melting point came out at 94.5 °C. Besides, in data set [1], the “pKi” value is “Particular affinity”. Also, the “ED50 (dose producing 50% protection against audiogenic seizures)” value in data set [2] is reported as “Particularly promising activity”.
The like results for `C=C[C@H]1CC(=O)N([C@@H](CC)C(N)=O)C1` [Compound 93] were, in that order, 68.3 °C, “Particular affinity” and “Particularly promising activity”.
For `CCC(C(N)=O)N1CC(C#CBr)CC1=O` (stereo not shown) [Compound 264] the same measures were 173.2 °C, “Particular affinity” and “Particularly promising activity”.
The like results for `CCCCC1CC(=O)N(C(CC)C(N)=O)C1` (stereo not shown) [Compound 164] were, in that order, 108.8 °C, “Particular affinity” and “Particularly promising activity”.
`CC[C@@H](C(N)=O)N1CC(CI)CC1=O` (stereo partly shown) [Compound 27]: the melting point was determined as 107.7 °C. Further, the “pKi” value in data set [1] was “Particular affinity”. For the same molecule, the “ED50 (dose producing 50% protection against audiogenic seizures)” value in data set [2] is given as “Particularly promising activity”.
For `CC[C@@H](C(N)=O)N1CC(CCC(F)(F)F)CC1=O` (stereo partly shown) [Compound 214] the same measures were 120.9 °C, “Particular affinity” and “Particularly promising activity”.
The like results for `CCC(C(N)=O)N1CC(CC(C)C)CC1=O` (stereo not shown) [Compound 166] were, in that order, 120.2 °C, “Particular affinity” and “Particularly promising activity”.
`C=CC1CC(=O)N(C(CC)C(N)=O)C1` (stereo not shown) [Compound 41] returned a melting point of 120.5 °C. The “pKi” value in data set [1] is “Particular affinity”. In addition, in data set [2], the “ED50 (dose producing 50% protection against audiogenic seizures)” value is “Particularly promising activity”.
For `CC[C@@H](C(N)=O)N1CC(CC2CC2)CC1=O` (stereo partly shown) [Compound 212] the same measures were 104.4 °C, “Particular affinity” and “Particularly promising activity”.
Regarding `CC[C@@H](C(N)=O)N1CC(c2cccs2)CC1=O` (stereo partly drawn) [Compound 71, (2S)-2-[2-oxo-4-(2-thienyl)-1-pyrrolidinyl]butanamide], the melting point was found to be 69.3 °C. Further, in data set [1], the “pKi” value was “Particular affinity”. Moreover, the “ED50 (dose producing 50% protection against audiogenic seizures)” value in data set [2] is on record as “Particularly promising activity”.
The molecule `CC[C@@H](C(N)=O)N1CC(CCc2ccccc2)CC1=O` (stereo partly shown) [Compound 175] registered a melting point of 89.5 °C. The “pKi” value in data set [1] is “Particular affinity”.
In the case of `CC[C@@H](C(N)=O)N1CC(c2ccsc2)CC1=O` (stereo partly shown) [Compound 83], the melting point was in the range of 93 to 95 °C. For the same molecule, in data set [1], the “pKi” value is recorded as “Particular affinity”.
With `CCC(C(N)=O)N1CC(C#CBr)CC1=O` (stereo not shown) [Compound 267, 2-(4-bromo-ethynyl-2-oxo-1-pyrrolidinyl)butanamide], the melting point was determined as 103.9 °C. Further, in data set [1], the “pKi” value was “Particular affinity”.
